Values quoted from earlier work in patent US20130165526A1, “TOPICAL TREATMENT WITH DAPSONE IN G6PD-DEFICIENT PATIENTS” (ALLERGAN, INC., priority 2007, published 2013).

System: P. acnes
Settings: Godowski et al., 2000

Nc1ccc(S(=O)(=O)c2ccc(N)cc2)cc1 [Dapsone, bis(4-aminophenyl)sulfone]
Minimum inhibitory concentration: about 1 microgram per milliliter
